In US9670203B2 (BeiGene, LTD., priority 2013, dated 2017):
Where two headings read alike, the source gives them in different places.

Experiments:
B-Raf (V600E) = B-Raf (V600E) (Homo sapiens (Human), UniProt P15056, V600E); assay: Raf IC50 assay, time-resolved fluorescence energy transfer, B-Raf (V600E); format: biochemical; details: 0.1 mM ATP; read-out: IC50 (nM) B_Raf^V600E
Method: The enzyme was incubated with the compounds at room temperature for 60 minutes and the reactions were initiated by the addition of ATP and GST-MEK1. After reaction at room temperature for 60 minutes, an equal volume of stop/detection solution was added according to the manufacture's instruction (CisBio Bioassays). […] The IC50 for each compound was derived from fitting the dose-response % inhibition data to the four-parameter logistic model by Graphpad Prism software.

A375 = assay: Anti-proliferative activity EC50 assay (CellTiter-Glo) in A375; format: cell-based; details: Homo sapiens, A-375, 72 h; 3-day exposure; read-out: Cell Proliferation EC50 (nM) A375
Method: The growth-inhibitory activity of compounds in A375 and p61-A375, was determined using CellTiter-Glo luminescent cell viability assay (Promega). The 2,000 cells were seeded per well of a 96-well plate to ensure logarithmic growth could occur over the 3 days treatment period. Cells were left to attach for 16 hours, cells were treated in duplicate with a 10-point dilution series. Following a 3-day exposure to compounds disclosed herein, a volume of CellTiter-Glo reagent equal to the volume of cell culture medium present in each well was added. Mixture was mixed on an orbital shaker for 2 minutes to allow cell lysis, followed by 10 minutes incubation at room temperature to allow stabilization of luminescent signal, which corresponded to quantitation of ATP and thus the quantitation of metabolically active cells. Luminescent signal was measured using Pherastar FS reader (BMG Labtech).
EC50 values for growth inhibition were calculated by fitting dose-dependent data to the four-parameter logistic model using GraphPad Prism software.

C-Raf (Y340D/Y341D) = C-Raf (Y340D/Y341D) (Homo sapiens (Human), UniProt P04049, Y340D/Y341D); assay: Raf IC50 assay, time-resolved fluorescence energy transfer, C-Raf (Y340D/Y341D); format: biochemical; details: 0.1 mM ATP
Method: The assay was carried out in reactions (10 μL) containing 0.0625 nM B-Raf or 0.5 nM C-Raf, 25 mM Tris pH7.4, 10 mM MgCl2, 0.5 mM EGTA, 0.5 mM Na3VO4, 5 mM beta-glycerophosphate, 0.01% Triton X-100, 2.5 mM DTT, 0.1% BSA, 0.1 mM ATP, 13.7 nM GST-tagged MEK1 (Full-length protein with K97R mutation, recombinant protein purified from bacterial expression system) and 0-5 μM compounds disclosed herein (final concentration of 1% DMSO). The enzyme was incubated with the compounds at room temperature for 60 minutes and the reactions were initiated by the addition of ATP and GST-MEK1. After reaction at room temperature for 60 minutes, an equal volume of stop/detection solution was added according to the manufacture's instruction (CisBio Bioassays). The stop/detection solution contained Eu^3+ cryptate-conjugated anti-phospho MEK1/2 (Ser217/221) rabbit polyclonal antibody and d2-conjugated anti-GST mouse monoclonal antibody in buffer containing 25 mM Tris pH7.4, 400 mM KF, 50 mM EDTA, 0.01% BSA and 0.01% Triton X-100. Plates were sealed and incubated at room temperature for 2 hours, and the TR-FRET signals (ratio of fluorescence emission at 665 nm over emission at 620 nm with excitation at 337 nm wavelength) were recorded on a PHERAstar FS plate reader (BMG Labtech). Phosphorylation of MEK1 led to the binding of anti-phospho-MEK1/2 antibody to GST-MEK1 protein that place fluorescent donor (Eu^3+ crypate) in close proximity to the accepter d2 on the anti-GST antibody, thus resulting in a high degree of fluorescence resonance energy transfer from the donor fluorophore (at 620 nm) to the acceptor fluorophore (at 665 nm). […] The IC50 for each compound was derived from fitting the dose-response % inhibition data to the four-parameter logistic model by Graphpad Prism software.

wild type B-Raf = wild type B-Raf (Homo sapiens (Human), UniProt P15056); assay: WT B-Raf IC50 assay, time-resolved fluorescence energy transfer; format: biochemical
Method: The IC50 for each compound was calculated by non linear regression by Graphpad Prism software.

[1] = 2.5 mM ATP, read-out: IC50 (nM) B-Raf^WT 2.5 mM ATP
[2] = Km ATP (2.9 μM ATP), read-out: IC50 (nM) B-Raf^WT Km ATP

Chain of wild type B-Raf (P15056 whole entry): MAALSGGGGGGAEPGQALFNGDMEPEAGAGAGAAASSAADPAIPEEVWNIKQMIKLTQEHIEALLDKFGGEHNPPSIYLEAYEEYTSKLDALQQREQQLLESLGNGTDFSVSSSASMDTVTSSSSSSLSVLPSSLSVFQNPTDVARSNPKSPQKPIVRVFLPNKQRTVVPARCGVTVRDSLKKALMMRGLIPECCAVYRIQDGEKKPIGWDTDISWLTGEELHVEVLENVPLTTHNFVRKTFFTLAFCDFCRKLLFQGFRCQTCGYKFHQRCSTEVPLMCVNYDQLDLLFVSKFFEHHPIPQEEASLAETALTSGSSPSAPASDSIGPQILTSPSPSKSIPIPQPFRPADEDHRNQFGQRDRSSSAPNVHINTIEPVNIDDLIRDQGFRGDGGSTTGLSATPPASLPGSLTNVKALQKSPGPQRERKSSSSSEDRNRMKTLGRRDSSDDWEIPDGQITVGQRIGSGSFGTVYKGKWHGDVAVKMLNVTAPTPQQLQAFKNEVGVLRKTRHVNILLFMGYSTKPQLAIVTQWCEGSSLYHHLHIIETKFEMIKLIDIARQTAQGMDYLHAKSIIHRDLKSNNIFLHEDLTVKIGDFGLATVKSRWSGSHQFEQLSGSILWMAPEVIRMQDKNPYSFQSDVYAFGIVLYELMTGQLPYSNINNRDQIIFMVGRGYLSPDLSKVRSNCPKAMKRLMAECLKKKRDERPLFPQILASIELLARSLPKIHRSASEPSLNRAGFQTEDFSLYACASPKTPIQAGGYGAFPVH
Chain of C-Raf (Y340D/Y341D) (P04049 whole entry Y340D/Y341D): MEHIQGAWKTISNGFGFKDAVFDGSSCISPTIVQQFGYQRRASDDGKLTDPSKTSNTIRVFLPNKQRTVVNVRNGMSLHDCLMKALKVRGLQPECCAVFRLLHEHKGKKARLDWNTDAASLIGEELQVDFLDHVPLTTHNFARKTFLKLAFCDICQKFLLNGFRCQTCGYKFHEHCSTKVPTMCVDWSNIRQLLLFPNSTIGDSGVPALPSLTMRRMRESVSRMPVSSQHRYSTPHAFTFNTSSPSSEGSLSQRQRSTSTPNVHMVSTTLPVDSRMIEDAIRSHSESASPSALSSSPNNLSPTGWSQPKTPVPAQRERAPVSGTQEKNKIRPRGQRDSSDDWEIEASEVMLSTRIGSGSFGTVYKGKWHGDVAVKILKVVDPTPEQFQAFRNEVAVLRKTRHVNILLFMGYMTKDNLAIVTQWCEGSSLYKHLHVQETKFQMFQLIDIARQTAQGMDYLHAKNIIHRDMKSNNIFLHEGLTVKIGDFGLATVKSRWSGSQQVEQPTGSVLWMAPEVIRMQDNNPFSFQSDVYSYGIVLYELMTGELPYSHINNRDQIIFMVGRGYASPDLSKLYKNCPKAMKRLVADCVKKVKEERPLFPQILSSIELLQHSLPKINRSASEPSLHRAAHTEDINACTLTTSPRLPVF
Chain of B-Raf (V600E) (P15056 whole entry V600E): as the sequence (P15056 whole entry) above, with V600E counted along it

| IC50 (wild type B-Raf; [1]) [nM] | Compound | IC50 (B-Raf (V600E)) [nM] | EC50 (A375) [nM] | IC50 (C-Raf (Y340D/Y341D)) [nM] | IC50 (wild type B-Raf; [2]) [nM] |
| --- | --- | --- | --- | --- | --- |
|  | CNC(=O)c1cc(Oc2ccc3c(c2)[C@H]2[C@H](NC(=O)Nc4cccc(C(F)(F)F)c4)[C@H]2O3)ccn1 [Compound 2.6, N-methyl-4-(((1S,1aS,6bS)-1-(3-(3-(trifluoromethyl)phenyl)ureido)-1a,6b-dihydro-1H-cyclopropa[b]benzofuran-5-yl)oxy)picolinamide] | 26 | 624 |  |  |
|  | O=C1CCc2c(Oc3ccc4c(c3)[C@H]3[C@H](NC(=O)Nc5ccccc5C(F)(F)F)[C@H]3O4)ccnc2N1 [Compound 1.30] | 3 | 583 |  |  |
|  | CNC(=O)c1cc(Oc2ccc3c(c2)[C@H]2[C@H](NC(=O)Nc4cc(F)c(F)cc4F)[C@H]2O3)ccn1 [Compound 2.8] | 13 |  | 3 | 17 |
|  | CC(C)(C)NC(=O)N[C@@H]1[C@H]2Oc3ccc(Oc4ccnc5c4CCC(=O)N5)cc3[C@@H]12 [Compound 1.77] | 4.5 | 4540 |  |  |
|  | O=C1CCc2c(Oc3ccc4c(c3)[C@H]3[C@H](NC(=O)Nc5ccc(Cl)cc5C(F)(F)F)[C@H]3O4)ccnc2N1 [Compound 1.9] | 9.5 |  | 1.6 | 21 |
|  | O=C1CCc2c(Oc3ccc4c(c3)[C@H]3C(NC(=O)NCc5ccc(F)cc5C(F)(F)F)[C@H]3O4)ccnc2N1 (some centres unmarked) [Compound 1.76] | 3.4 | 1310 |  |  |
|  | COc1ccc(CNC(=O)N[C@@H]2[C@H]3Oc4ccc(Oc5ccnc6c5CCC(=O)N6)cc4[C@@H]23)cc1 [Compound 1.3] | 40 |  | 0.54 |  |
|  | Cc1cccc(Cl)c1NC(=O)N[C@@H]1[C@H]2Oc3ccc(Oc4ccnc5c4CCC(=O)N5)cc3[C@@H]12 [Compound 1.19] | 5.1 | 503 |  |  |
|  | O=C1CCc2c(Oc3ccc4c(c3)[C@H]3[C@H](NC(=O)NC5CCCC5)[C@H]3O4)ccnc2N1 [Compound 1.51] | 0.59 | 273 |  |  |
|  | CNC(=O)c1cc(Oc2ccc3c(c2)[C@H]2[C@H](NC(=O)Nc4ccc(F)c(C(F)(F)F)c4)[C@H]2O3)ccn1 [Compound 2.7] | 33 | 464 |  |  |
|  | O=C1CCc2c(Oc3ccc4c(c3)[C@H]3[C@H](NC(=O)N[C@H]5CCCc6ccccc65)[C@H]3O4)ccnc2N1 [Compound 1.79] | 3.2 | 222 | 0.39 |  |
|  | O=C1CCc2c(Oc3ccc4c(c3)[C@H]3[C@H](NC(=O)Nc5ccc(OC(F)(F)F)cc5)[C@H]3O4)ccnc2N1 [Compound 1.61] | 7.4 | 975 |  |  |
|  | O=C1NCc2c(Oc3ccc4c(c3)[C@H]3[C@H](NC(=O)Nc5ccc(F)c(C(F)(F)F)c5)[C@H]3O4)ccnc2N1 [Compound 2.4, 1-(4-fluoro-3-(trifluoromethyl)phenyl)-3-((1S,1aS,6bS)-5-((2-oxo-1,2,3,4-tetrahydropyrido[2,3-d]pyrimidin-5-yl)oxy)-1a,6b-dihydro-1H-cyclopropa[b]benzofuran-1-yl)urea] | 11 | 374 |  |  |
|  | Nc1cc(Oc2ccc3c(c2)[C@H]2[C@H](NC(=O)Nc4cc(F)c(F)cc4F)[C@H]2O3)ccn1 [Compound 2.15] | 18 | 10000 |  |  |
|  | O=C1CCc2c(Oc3ccc4c(c3)[C@H]3[C@H](NC(=O)NCc5cccc(F)c5)[C@H]3O4)ccnc2N1 [Compound 1.58] | 0.77 | 534 |  |  |
| 75 | O=C1CCc2c(Oc3ccc4c(c3)[C@H]3[C@H](NC(=O)Nc5cc(C(F)(F)F)ccc5F)[C@H]3O4)ccnc2N1 [Compound 1.33] | 9.5 | 137 |  | 19 |
|  | O=C1CCc2c(Oc3ccc4c(c3)[C@H]3[C@H](NC(=O)N[C@H]5CCc6ccccc65)[C@H]3O4)ccnc2N1 [Compound 1.81] | 2.7 | 159 |  |  |
|  | O=C1CCc2c(Oc3ccc4c(c3)[C@H]3[C@H](NC(=O)NC5CCOCC5)[C@H]3O4)ccnc2N1 [Compound 1.67] | 4.2 | 4170 |  |  |
|  | CCCCCCCCNC(=O)N[C@@H]1[C@H]2Oc3ccc(Oc4ccnc5c4CCC(=O)N5)cc3[C@@H]12 [Compound 1.84] | 12 | 4330 |  |  |

| IC50 (wild type B-Raf; [1]) [nM] | Compound | IC50 (B-Raf (V600E)) [nM] | EC50 (A375) [nM] | IC50 (C-Raf (Y340D/Y341D)) [nM] | IC50 (wild type B-Raf; [2]) [nM] |
| --- | --- | --- | --- | --- | --- |
|  | O=C(Nc1cc(F)c(F)cc1F)N[C@@H]1[C@H]2Oc3ccc(Oc4ccnc5c4COC(=O)N5)cc3[C@@H]12 [Compound 2.3, 1-((1S,1aS,6bS)-5-((2-oxo-2,4-dihydro-1H-pyrido[2,3-d][1,3]oxazin-5-yl)oxy)-1a,6b-dihydro-1H-cyclopropa[b]benzofuran-1-yl)-3-(2,4,5-trifluorophenyl)urea] | 2.6 | 190 |  |  |
|  | O=C1CCc2c(Oc3ccc4c(c3)[C@H]3[C@H](NC(=O)NCc5ccc(F)cc5)[C@H]3O4)ccnc2N1 [Compound 1.59] | 0.84 | 891 |  |  |
|  | O=C1CCc2c(Oc3ccc4c(c3)[C@H]3[C@H](NC(=O)Nc5cccc(OC(F)(F)F)c5)[C@H]3O4)ccnc2N1 [Compound 1.60] | 8.6 | 193 |  |  |
|  | O=C1CCc2c(Oc3ccc4c(c3)[C@H]3[C@H](NC(=O)Nc5ccc(C(F)(F)F)cc5F)[C@H]3O4)ccnc2N1 [Compound 1.20] | 13 |  | 2.7 | 23 |
| 7.9 | O=C1CCc2c(Oc3ccc4c(c3)[C@H]3[C@H](NC(=O)Nc5c(F)ccc(F)c5F)[C@H]3O4)ccnc2N1 [Compound 1.48] | 0.74 | 686 |  | 2.5 |
| 8.5 | C#Cc1cccc(NC(=O)N[C@@H]2[C@H]3Oc4ccc(Oc5ccnc6c5CCC(=O)N6)cc4[C@@H]23)c1 [Compound 1.14] | 1.9 | 127 |  | 2.8 |
|  | O=C1CCc2c(Oc3ccc4c(c3)[C@H]3[C@H](NC(=O)N[C@@H]5CCc6ccccc65)[C@H]3O4)ccnc2N1 [Compound 1.82] | 2.4 | 867 |  |  |
|  | O=C1CCc2c(Oc3ccc4c(c3)[C@H]3[C@H](NC(=O)Nc5ccccc5OC(F)(F)F)[C@H]3O4)ccnc2N1 [Compound 1.62] | 6.3 | 302 |  |  |
|  | O=C1CCc2c(Oc3ccc4c(c3)[C@H]3[C@H](NC(=O)Nc5ccc(C(F)(F)F)cc5)[C@H]3O4)ccnc2N1 [Compound 1.29] | 6.9 | 222 |  |  |
|  | CCCCCCNC(=O)N[C@@H]1[C@H]2Oc3ccc(Oc4ccnc5c4CCC(=O)N5)cc3[C@@H]12 [Compound 1.78] | 0.72 | 1900 |  |  |
|  | CC(C)(C)CNC(=O)N[C@@H]1[C@H]2Oc3ccc(Oc4ccnc5c4CCC(=O)N5)cc3[C@@H]12 [Compound 1.83] | 3 | 291 |  |  |
|  | Cc1cc(Cl)ccc1NC(=O)N[C@@H]1[C@H]2Oc3ccc(Oc4ccnc5c4CCC(=O)N5)cc3[C@@H]12 [Compound 1.7] | 1.1 |  | 0.35 | 2.6 |
|  | O=C1CCc2c(Oc3ccc4c(c3)[C@@H]3[C@@H](NC(=O)Nc5cccc(C(F)(F)F)c5)[C@@H]3O4)ccnc2N1 [Compound 1.71, 1-((1R,1aR,6bR)-5-((7-oxo-5,6,7,8-tetrahydro-1,8-naphthyridin-4-yl)oxy)-1a,6b-dihydro-1H-cyclopropa[b]benzofuran-1-yl)-3-(3-(trifluoromethyl)phenyl)urea] | 3 |  | 0.34 |  |
|  | O=C1NCc2c(Oc3ccc4c(c3)[C@H]3[C@H](NC(=O)Nc5cc(F)c(F)cc5F)[C@H]3O4)ccnc2N1 [Compound 2.5] | 2.3 | 769 |  |  |
|  | O=C1CCc2c(Oc3ccc4c(c3)[C@H]3[C@H](NC(=O)N[C@@H]5CCCc6ccccc65)[C@H]3O4)ccnc2N1 [Compound 1.80] | 4 | 132 | 0.5 |  |
|  | CC(C)(N)c1cc(NC(=O)N[C@@H]2[C@H]3Oc4ccc(Oc5ccnc6c5CCC(=O)N6)cc4[C@@H]23)cc(C(F)(F)F)c1 [Compound 1.70, 1-(3-(2-aminopropan-2-yl)-5-(trifluoromethyl)phenyl)-3-((1S,1aS,6bS)-5-((7-oxo-5,6,7,8-tetrahydro-1,8-naphthyridin-4-yl)oxy)-1a,6b-dihydro-1H-cyclopropa[b]benzofuran-1-yl)urea] | 7.4 |  | 0.81 | 15 |
|  | O=C1CCc2c(Oc3ccc4c(c3)[C@H]3[C@H](NC(=O)Nc5c(F)cc(F)cc5F)[C@H]3O4)ccnc2N1 [Compound 1.40] | 1.6 |  | 0.2 | 2 |
|  | O=C1CCc2c(Oc3ccc4c(c3)[C@H]3[C@H](NC(=O)NCc5cccc(C(F)(F)F)c5)[C@H]3O4)ccnc2N1 [Compound 1.54] | 1.9 | 2700 |  |  |

| Compound | IC50 (wild type B-Raf; [1]) [nM] | IC50 (B-Raf (V600E)) [nM] | EC50 (A375) [nM] | IC50 (C-Raf (Y340D/Y341D)) [nM] | IC50 (wild type B-Raf; [2]) [nM] |
| --- | --- | --- | --- | --- | --- |
| O=C1CCc2c(Oc3ccc4c(c3)[C@H]3[C@H](NC(=O)Nc5cc(C(F)(F)F)ccn5)[C@H]3O4)ccnc2N1 [Compound 1.2] | 18 | 4 | 122 | 0.77 | 6.3 |
| O=C1CCc2c(Oc3ccc4c(c3)[C@H]3[C@H](NC(=O)Nc5cc(F)c(F)c(F)c5)[C@H]3O4)ccnc2N1 [Compound 1.47] | 23 | 4.1 | 140 | 0.53 | 6.4 |
